Test results published in ChEMBL document CHEMBL1133710 (J Med Chem, 2000).

Assays:
D(2) dopamine receptor [1] = biological target: T1, D(2) dopamine receptor (Homo sapiens, UniProt P14416); experiment: Binding Affinity of Compound of Dopamine receptor D2S
D(2) dopamine receptor [2] = biological target: T1, D(2) dopamine receptor; experiment: Binding Affinity was determined in the presence of 100 micro M Gpp(NH)p for decoupling of the ternary complex of Compound to Dopamine receptor D2S
D(4) dopamine receptor [3] = biological target: T2, D(4) dopamine receptor (Homo sapiens, UniProt P21917); experiment: Binding Affinity was tested on the high affinity site of Dopamine receptor D4.4
T2 sequence (P21917 whole entry): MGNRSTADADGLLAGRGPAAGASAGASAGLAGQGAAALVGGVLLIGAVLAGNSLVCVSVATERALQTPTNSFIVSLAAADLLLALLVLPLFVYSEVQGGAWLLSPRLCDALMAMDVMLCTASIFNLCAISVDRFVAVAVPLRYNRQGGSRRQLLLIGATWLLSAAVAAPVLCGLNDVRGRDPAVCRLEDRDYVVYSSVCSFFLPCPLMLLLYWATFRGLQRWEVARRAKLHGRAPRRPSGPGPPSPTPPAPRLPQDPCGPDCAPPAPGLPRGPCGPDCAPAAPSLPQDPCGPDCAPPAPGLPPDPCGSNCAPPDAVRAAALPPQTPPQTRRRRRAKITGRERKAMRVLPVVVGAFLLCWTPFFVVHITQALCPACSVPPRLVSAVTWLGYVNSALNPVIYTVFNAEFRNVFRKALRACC

D(4) dopamine receptor [4] = biological target: T2, D(4) dopamine receptor; experiment: Binding Affinity was tested on low Affinity Site of Dopamine receptor D4.4
D(2) dopamine receptor [5] = biological target: T1, D(2) dopamine receptor; experiment: Binding Affinity was determined in the presence of 100 micro M Gpp(NH)p for decoupling of the ternary complex of Compound to Dopamine receptor D2L
D(2) dopamine receptor [6] = biological target: T1, D(2) dopamine receptor; experiment: Binding Affinity was tested on low Affinity Site of Dopamine receptor D2L
D(2) dopamine receptor [7] = biological target: T1, D(2) dopamine receptor; experiment: Dissociation constant of compound on one-site model Dopamine receptor D2S
D(2) dopamine receptor [8] = biological target: T1, D(2) dopamine receptor; experiment: Dissociation constant of compound on one-site model Dopamine receptor D2L
D(4) dopamine receptor [9] = biological target: T2, D(4) dopamine receptor; experiment: Dissociation constant of compound on one-site model Dopamine receptor D4.4
D(3) dopamine receptor [10] = biological target: T3, D(3) dopamine receptor (Homo sapiens, UniProt P35462); experiment: Binding Affinity was determined in the presence of 100 micro M Gpp(NH)p for decoupling of the ternary complex of Compound to Dopamine receptor D3
T3 sequence (P35462 whole entry): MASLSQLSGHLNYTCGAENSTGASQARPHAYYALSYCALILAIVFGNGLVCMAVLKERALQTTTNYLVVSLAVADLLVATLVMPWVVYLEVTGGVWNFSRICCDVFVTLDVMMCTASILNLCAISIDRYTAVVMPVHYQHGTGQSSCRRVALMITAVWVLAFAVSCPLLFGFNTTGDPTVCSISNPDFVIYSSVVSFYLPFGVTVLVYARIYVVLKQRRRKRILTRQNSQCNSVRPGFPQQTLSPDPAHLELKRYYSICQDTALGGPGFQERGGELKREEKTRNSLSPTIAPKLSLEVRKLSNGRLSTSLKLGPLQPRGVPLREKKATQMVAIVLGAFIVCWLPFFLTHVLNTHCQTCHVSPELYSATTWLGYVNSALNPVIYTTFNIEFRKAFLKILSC

D(3) dopamine receptor [11] = biological target: T3, D(3) dopamine receptor; experiment: Binding Affinity was tested on low Affinity Site of Dopamine receptor D3
D(3) dopamine receptor [12] = biological target: T3, D(3) dopamine receptor; experiment: Dissociation constant of compound on one-site model Human Dopamine receptor D3
D(2) dopamine receptor [13] = biological target: T1, D(2) dopamine receptor
D(2) dopamine receptor [14] = biological target: T1, D(2) dopamine receptor; remark: listed apart in the source
D(3) dopamine receptor [15] = biological target: T3, D(3) dopamine receptor
D(2) dopamine receptor [16] = biological target: T4, D(2) dopamine receptor (Bos taurus, UniProt P20288); experiment: Binding Affinity was tested on high Affinity Site of Bovine Dopamine D2 Receptor. Tested for ability to displace the radioligand [3H]-Spiperone
T4 sequence (P20288 whole entry): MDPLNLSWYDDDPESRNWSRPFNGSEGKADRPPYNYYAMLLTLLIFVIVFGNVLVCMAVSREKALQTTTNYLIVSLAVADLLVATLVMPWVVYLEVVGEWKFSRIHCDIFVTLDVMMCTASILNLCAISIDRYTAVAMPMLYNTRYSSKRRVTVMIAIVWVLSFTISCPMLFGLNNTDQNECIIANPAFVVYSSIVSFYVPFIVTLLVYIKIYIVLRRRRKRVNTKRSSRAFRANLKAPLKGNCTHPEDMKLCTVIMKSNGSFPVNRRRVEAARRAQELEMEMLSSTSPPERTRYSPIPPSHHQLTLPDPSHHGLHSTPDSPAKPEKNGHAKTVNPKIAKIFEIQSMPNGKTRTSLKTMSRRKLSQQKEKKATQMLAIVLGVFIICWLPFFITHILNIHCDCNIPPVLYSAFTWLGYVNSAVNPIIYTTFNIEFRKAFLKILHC

D(2) dopamine receptor [17] = biological target: T4, D(2) dopamine receptor; experiment: Dissociation constant of compound on one-site model Bovine dopamine receptor D2. Tested for ability to displace the radioligand [3H]spiperone at the binding site.
D(2) dopamine receptor [18] = biological target: T4, D(2) dopamine receptor; experiment: Binding Affinity was determined for decoupling of the ternary complex of Compound to Bovine dopamine receptor D2. Tested for ability to displace the radioligand [3H]spiperone at the binding site.
D(2) dopamine receptor [19] = biological target: T4, D(2) dopamine receptor; experiment: Binding Affinity was tested on high Affinity Site of Bovine dopamine receptor D2. Tested for ability to displace the radioligand [3H]pramipexole at the binding site.
D(2) dopamine receptor [20] = biological target: T4, D(2) dopamine receptor; experiment: Binding Affinity was tested on low Affinity Site of Bovine dopamine receptor D2. Tested for ability to displace the radioligand [3H]spiperone at the binding site.
D(3) dopamine receptor [21] = biological target: T3, D(3) dopamine receptor; experiment: Dissociation constant of compound on one-site model Dopamine receptor D3
D(1A) dopamine receptor [22] = biological target: T5, D(1A) dopamine receptor (Bos taurus, UniProt Q95136); experiment: Binding Affinity was tested on High Affinity Site of Bovine dopamine receptor D1. Tested for ability to displace the radioligand [3H]-SCH- 23390
T5 sequence (Q95136 whole entry): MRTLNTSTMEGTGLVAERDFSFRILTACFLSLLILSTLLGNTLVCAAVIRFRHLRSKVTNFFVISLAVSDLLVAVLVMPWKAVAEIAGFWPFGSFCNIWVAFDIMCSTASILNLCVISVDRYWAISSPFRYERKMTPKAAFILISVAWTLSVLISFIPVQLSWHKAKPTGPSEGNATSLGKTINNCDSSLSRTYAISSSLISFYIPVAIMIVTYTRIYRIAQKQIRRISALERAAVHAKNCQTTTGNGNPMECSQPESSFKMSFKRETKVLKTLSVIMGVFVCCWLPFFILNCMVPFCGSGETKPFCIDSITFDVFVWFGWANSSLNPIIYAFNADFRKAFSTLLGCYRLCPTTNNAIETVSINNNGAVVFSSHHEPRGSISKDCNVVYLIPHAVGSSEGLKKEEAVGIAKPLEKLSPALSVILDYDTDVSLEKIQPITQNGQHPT

D(1A) dopamine receptor [23] = biological target: T5, D(1A) dopamine receptor; experiment: Binding Affinity was tested on High Affinity Site of Bovine Dopamine D1 Receptor. Tested for ability to displace the radioligand [3H]-SCH- 23390
D(2) dopamine receptor [24] = biological target: T1, D(2) dopamine receptor; experiment: Binding Affinity was tested on High Affinity Site of Dopamine receptor D2L
D(2) dopamine receptor [25] = biological target: T1, D(2) dopamine receptor; experiment: Binding Affinity was tested on High Affinity Site of Dopamine receptor D2S
D(1A) dopamine receptor [26] = biological target: T5, D(1A) dopamine receptor; experiment: Binding Affinity was tested for its ability to displace the radioligand [3H]-SCH- 23390 from High Affinity Site of Bovine dopamine receptor D1
D(2) dopamine receptor [27] = biological target: T1, D(2) dopamine receptor; remark: listed apart in the source
D(2) dopamine receptor [28] = biological target: T1, D(2) dopamine receptor; remark: listed apart in the source
D(3) dopamine receptor [29] = biological target: T3, D(3) dopamine receptor; remark: listed apart in the source

T1 sequence (P14416 whole entry): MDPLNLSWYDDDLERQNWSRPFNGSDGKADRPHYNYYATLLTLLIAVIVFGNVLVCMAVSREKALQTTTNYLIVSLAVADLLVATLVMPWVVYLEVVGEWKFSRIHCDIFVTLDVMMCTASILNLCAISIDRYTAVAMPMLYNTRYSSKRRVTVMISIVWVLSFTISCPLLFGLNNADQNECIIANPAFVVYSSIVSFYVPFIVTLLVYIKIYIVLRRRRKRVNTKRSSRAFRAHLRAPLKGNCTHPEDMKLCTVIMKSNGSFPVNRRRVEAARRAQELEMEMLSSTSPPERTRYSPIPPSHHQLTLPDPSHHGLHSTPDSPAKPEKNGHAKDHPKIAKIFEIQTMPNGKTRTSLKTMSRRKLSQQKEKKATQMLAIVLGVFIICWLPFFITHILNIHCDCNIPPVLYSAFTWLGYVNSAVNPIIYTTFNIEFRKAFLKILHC

| SMILES | Ki (D(4) dopamine receptor [3]) [µM] | Ki (D(2) dopamine receptor [13]) [µM] | Ki (D(2) dopamine receptor [14]) [µM] | Ki (D(3) dopamine receptor [15]) [µM] | Ki (D(1A) dopamine receptor [22]) [µM] | further results |
| --- | --- | --- | --- | --- | --- | --- |
| CCCN(CCC)C1CC=C(C#C[Si](C)(C)C)CC1 (stereo unspecified) | 0.16 | 0.97 | 0.16 | 0.047 | > 20 | Ki (D(2) dopamine receptor [16]): 0.15 µM; Ki (D(2) dopamine receptor [1]): > 20 µM; Ki (D(2) dopamine receptor [2]): > 20 µM; Ki (D(4) dopamine receptor [4]): 3.8 µM; Ki (D(2) dopamine receptor [17]): 1.6 µM; Ki (D(2) dopamine receptor [18]): 12 µM; Ki (D(2) dopamine receptor [19]): 0.03 µM; Ki (D(2) dopamine receptor [20]): 7.5 µM; Ki (D(2) dopamine receptor [5]): > 20 µM; Ki (D(2) dopamine receptor [6]): > 20 µM; Ki (D(2) dopamine receptor [7]): > 20 µM; Ki (D(2) dopamine receptor [8]): > 20 µM; Ki (D(4) dopamine receptor [9]): 0.64 µM; Ki (D(3) dopamine receptor [10]): 1.9 µM; Ki (D(3) dopamine receptor [11]): 1.6 µM; Ki (D(3) dopamine receptor [21]): 0.82 µM |
| CCCN(CCC)C1CCC(=C(C#N)C#N)CC1 (stereo unspecified) | > 20 | 15 | > 20 | 1.6 | > 20 |  |
| CCCN(CCC)C1CCC(=C(C#Cc2ccccc2)C#Cc2ccccc2)CC1 (stereo unspecified) | 1.4 | 7.3 | 5.2 | 1.8 | 2.2 |  |
| CCCN(CCC)C1CCC(=CC#N)CC1 (stereo unspecified) | > 20 |  |  |  |  | Ki (D(1A) dopamine receptor [26]): > 20 µM; Ki (D(2) dopamine receptor [27]): > 20 µM; Ki (D(2) dopamine receptor [28]): > 20 µM; Ki (D(3) dopamine receptor [29]): 13 µM |

More lines, main results first:

| Ki (D(4) dopamine receptor [3]) [µM] | Ki (D(2) dopamine receptor [13]) [µM] | Ki (D(2) dopamine receptor [14]) [µM] | Ki (D(3) dopamine receptor [15]) [µM] | Ki (D(1A) dopamine receptor [22]) [µM] | SMILES | further results |
| --- | --- | --- | --- | --- | --- | --- |
| 0.022 | 0.25 | 0.27 | 0.0052 |  | C#CC1=CCC(N(CCC)CCC)CC1 (stereo unspecified) | Ki (D(2) dopamine receptor [1]): 12 µM; Ki (D(2) dopamine receptor [2]): 17 µM; Ki (D(4) dopamine receptor [4]): 0.38 µM; Ki (D(2) dopamine receptor [5]): 19 µM; Ki (D(2) dopamine receptor [6]): 14 µM; Ki (D(2) dopamine receptor [7]): 2.9 µM; Ki (D(2) dopamine receptor [8]): 2.8 µM; Ki (D(4) dopamine receptor [9]): 0.17 µM; Ki (D(3) dopamine receptor [10]): 0.72 µM; Ki (D(3) dopamine receptor [11]): 0.59 µM; Ki (D(3) dopamine receptor [12]): 0.35 µM |
| > 20 | > 20 | > 20 | 13 | > 20 | CCCN(CCC)C1CC=C(C#N)CC1 (stereo unspecified) |  |
| 1.9 | 13 | 11 | 2.8 |  | CCCN(CCC)C1CCC(=C(C#C[Si](C)(C)C)C#C[Si](C)(C)C)CC1 (stereo unspecified) | Ki (D(1A) dopamine receptor [23]): 3.9 µM |
| 3.9 | > 20 | 12 | 4.4 |  | C#CC(C#C)=C1CCC(N(CCC)CCC)CC1 (stereo unspecified) | Ki (D(1A) dopamine receptor [23]): 16 µM |
| 16 |  |  | 3.5 | > 20 | CCCN(CCC)C1CC=C(C#Cc2ccccc2)CC1 (stereo unspecified) | Ki (D(2) dopamine receptor [24]): 15 µM; Ki (D(2) dopamine receptor [25]): 15 µM |
